Results: patent US6677309B1, “Anti-cancer drug aldehyde conjugate drugs with enhanced cytotoxicity compounds, compositions and methods” (University Technology Corporation, priority 1997, dated 2004)
Read-outs that look alike come from different tables or passages of the source.

Columns and labels:
[1] = system: LNCaP; assay: Prostate cancer cell cytotoxicity, crystal violet assay, LNCaP; type: cell-based, human; conditions: 3 h drug, 4 days growth
Protocol: (§1) Toxicity to the three prostate cancer cell lines, LNCaP, DU-145, and PC-3 were measured in two different media, RPMI-1640 and DMEM (Dulbecco's Modified Eagle Medium), both supplemented with 10% fetal bovine serum.
(§2) Cell lines were maintained in vitro in RPMI 1640 media or DMEM, each supplemented with 10% fetal bovine serum, 2 mM L-glutamine, 10 mM HEPES buffer, penicillin (100 units/mL) and streptomycin (100 μg/mL).
(§3) Cells were dissociated with trypsin/EDTA, counted, and suspended in growth media (RPMI or DMEM) to a concentration of 5.6×10^3 cells/mL. Cell suspensions were dispensed in 180 μL aliquots into 96-well tissue culture plates. […] Each 100× solution was diluted 10× in growth media (RPMI or DMEM), and a 20 μL aliquot of the resulting 10× solution was immediately (<10s) added to-the appropriate lane. Additionally, one lane was treated with 20 μL of 10% DMSO in growth media (no drug) and one lane was treated with 200 μL of 1.5 M Tris buffer (no cells). The cells were incubated with the drugs for 3 h at 37° C. The drug solutions were then removed and replaced with 200 μL of fresh media. The cells were incubated for 4 days (7 days for PC-3 cells in DMEM) at 37° C. in a humidified atmosphere of 5% CO2 and 95% air. Cell survival was determined using a crystal violet assay as described earlier (Fenick, D. J. et al (1997) J. Med. Chem. 40: 2452-2461).

[2] = system: DU-145; assay: Prostate cancer cell cytotoxicity, crystal violet assay, DU-145; type: cell-based, human; conditions: 3 h drug, 4 days growth
Protocol: as §1, §2, §3

[3] = system: PC-3; assay: Prostate cancer cell cytotoxicity, crystal violet assay, PC-3; type: cell-based, human; conditions: 3 h drug
Protocol: as §1, §2, §3

[4] = system: MCF-7/ADR cells; assay: Cytotoxicity versus time of drug hydrolysis before addition to cells; type: cell-based, human; conditions: 1 μmol equiv./L, 25° C., serum-free media containing 10% DMSO, MCF-7/ADR survival
Protocol: The results of these experiments are illustrated in FIG. 2. […] However, the dimeric formaldehyde conjugate of daunorubicin completely lost its effectiveness within 25 min of standing in an aqueous solution. […] This biphasic curve is probably due to the decay mechanism of the dimeric formaldehyde conjugate of doxorubicin to doxorubicin in aqueous solution.
The drug solution was diluted 1:100 with DMSO, then 1:10 in serum-free RPMI media 1640. A volume of 20 μL of the resulting 0.5 μM (1 μmol equiv/L) drug solution was immediately added to the t=0 min lane. The remaining lanes were treated at 5 min intervals with 20 μL of the remaining drug solution, which was held at 25° C. between additions. Additionally, one lane was treated with 20 μL/well of serum-free RPMI media containing 10% DMSO (no drug) and one lane replaced with 200 μL/well of 1.5 M Tris buffer (no cells). Each lane was incubated at 37° C. for 3 h.

[5] = Stability in DMSO and DMSO/water, NMR or HPLC; type: physicochemical
Protocol: Crystalline dimeric formaldehyde conjugate of daunorubicin (2.8 mg, 2.6 μmol) was dissolved in 500 μL of DMSO-d6 (stored over 3 A molecular sieves) and analyzed by 400 MHz, ^1H NMR. […] Upon addition of 25 μL of D2O to the 500 μL DMSO-d6 sample, the dimeric formaldehyde conjugate of daunorubicin reacted over a 24 h period to form an equilibrium mixture consisting of 67% dimeric formaldehyde conjugate of daunorubicin and 32% of an intermediate. Because of the complexity of the spectrum, a structure could not be assigned to the intermediate; however, the intermediate appeared to have an oxazolidine ring. Upon addition of 3 equiv of hydrochloric acid in 130 μL of deuterium oxide, hydrolysis to daunorubicin-HCl was complete. The hydrochloric acid solution was prepared by the addition of 10 μL of concentrated HCl to 990 μL of D2O. The formaldehyde released from the dimeric formaldehyde conjugate of daunorubicin was detected as its hydrate. The final product was identified as daunorubicin by comparison of the NMR spectrum with that of a sample of daunorubicin plus 3 equiv of HCl. Further, the final product was isolated by removal of all volatile components under vacuum (0.1 Torr), and its ^1H NMR spectrum was identical to that of daunorubicin-HCl.
Amorphous dimeric formaldehyde conjugate of daunorubicin, when worked up in methylene chloride, was stable in DMSO for at least 4 days. It hydrolyzed with added D2O and hydrochloric acid in a manner similar to that of the crystalline material. When worked up in chloroform, amorphous dimeric formaldehyde conjugate of daunorubicin had less stability in DMSO, presumably due to traces of HCl from the chloroform.
A 1.3 mg sample of N-acetyl-3′-N,4′-O-methylenedaunorubicin was dissolved in […] of DMSO and analyzed over time by HPLC. […] At this time, […] of water was added to the DMSO/N-acetyl monomeric formaldehyde conjugate of daunorubicin solution, establishing a 50:50 DMSO:water mixture (v/v). In this solution, the N-acetyl-3′-N,4′-O-methylenedaunorubicin remained 91% intact (9% degradation to daunorubicin) over a period of 6 days, based upon the HPLC analysis.
A pH 6 triethyl ammonium acetate solution containing 13.1 μmol of epidoxorubicin-HCl and 6.6 mmol of […] was allowed to react in the dark at 25° C. for 30 min. The mixture was then extracted with chloroform with vigorous stirring for 20 min. The chloroform solution was dried over sodium sulfate and the chloroform removed by rotary evaporation. The resulting dry solid was redissolved in 1.0 mL of chloroform. To this was added 10 mL of n-hexane. After 2 days, a large amount of precipitate had formed, which was washed with 3×5 mL of n-hexane, followed by 4×1 mL of water.
The sample was maintained at ambient temperature for 2 h; after this period no change in the spectrum was observed. […] A stock 122 mM solution of HCl in D2O was prepared by adding concentrated hydrochloric acid to D2O. […] Complete hydrolysis occurred upon addition of ca. 2-3 equiv of HCl. A similar experiment was performed using HCl in H2O. […] This solution was incubated at 37° C. for 24 h prior to NMR analysis.

[6] = Hydrolysis in aqueous phosphate buffer, HPLC; type: physicochemical
Protocol: See Example 16. […] The DMSO was present to increase solubility.
Second, the kinetics of hydrolysis were measured in pH 6.0 phosphate buffer.
A 960 μL solution of pH 7.3 phosphate buffer was heated to 37° C. […] No change in the chromatography was observed if pH, 7.3 phosphate buffer was used as the eluent in place of pH 7.4 TEAA buffer.

Compound | IC50 ([1]; DMEM with 10% fetal bovine serum, read-out: IC50 Values, LNCaP/DMEM (converted)) [nM] | IC50 ([1]; RPMI-1640 with 10% fetal bovine serum, read-out: IC50 Values, LNCaP/RPMI-1640 (converted)) [nM] | IC50 ([2]; DMEM with 10% fetal bovine serum, read-out: IC50 Values, DU-145/DMEM (converted)) [nM] | IC50 ([2]; RPMI-1640 with 10% fetal bovine serum, read-out: IC50 Values, DU-145/RPMI-1640 (converted)) [nM] | IC50 ([3]; DMEM with 10% fetal bovine serum, 7 days growth, read-out: IC50 Values, PC-3/DMEM (converted)) [nM] | IC50 ([3]; RPMI-1640 with 10% fetal bovine serum, 4 days growth, read-out: IC50 Values, PC-3/RPMI-1640 (converted)) [nM] | time of standing in an aqueous solution until effectiveness completely lost [4] [min] | share of conjugate in the equilibrium mixture ([5]; 25 μL D2O added to 500 μL DMSO-d6, over 24 h, NMR) [%] | time stable in DMSO ([5]; crystalline material in DMSO-d6 stored over molecular sieves, 1H NMR) | time stable in DMSO ([5]; dry DMSO / DMSO-d6, 1H NMR) | half-life at 25 µM ([6]; pH 6.0 phosphate buffer, 37° C.) [h] | time the equilibrium mixture is stable ([6]; pH 7.3, at equilibrium) | half-life ([6]; pH 7.3 phosphate buffer, 37° C., read-out: half-life of hydrolysis, forward reaction (A⇄B) to C+D (converted)) [h]
COc1cccc2c1C(=O)c1c(O)c3c(c(O)c1C2=O)C[C@@](O)(C(C)=O)C[C@@H]3O[C@H]1C[C@H]2[C@H](OCN2CN2CO[C@@H]3[C@H](C)O[C@@H](O[C@H]4C[C@](O)(C(C)=O)Cc5c(O)c6c(c(O)c54)C(=O)c4c(OC)cccc4C6=O)C[C@@H]32)[C@H](C)O1 [DAUNF, bis(3′-N-(3′-N,4′-O-methylenedaunorubicinyl))methane] | 1.5 | 3 | 4 | 5 | 0.5 | 2.5 | ≤ 25 | 67 | at least 14 h | at least 4 days | – | – | –
COc1cccc2c1C(=O)c1c(O)c3c(c(O)c1C2=O)CC(O)(C(=O)CO)CC3OC1CC2C(OCN3CN2COC2C(C)OC(OC4C[C@](O)(C(=O)CO)Cc5c(O)c6c(c(O)c54)C(=O)c4c(OC)cccc4C6=O)CC23)C(C)O1 (some centres unmarked) [EPIF] | – | – | – | – | – | – | – | – | – | at least 4 days | 0.25 | at least 2 days | ~2
